In patent US20260262643A1, “HERBICIDAL BENZOXAZINES” (FMC CORPORATION, priority 2022, published 2026):

What was measured:
barnyardgrass = experiment: Test B flooded paddy test; format: in vivo, Echinochloa crus-galli; conditions: 250 g ai/ha, Flood, 13 days, 0 to 100 scale (0 no effect, 100 complete control)
Outline: (§1)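 Visual scores from 0 (no effect) to 100 (complete kill) were assigned 13 days after treatment by comparison with controls. Seedlings had been treated at two leaves by adding compound to floodwater standing 3 cm deep, kept at that level in the greenhouse.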

wheat [1] = experiment: Test A preemergence; format: in vivo, Triticum aestivum
Outline: (§2)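 Seeds in loam–sand blend received a directed preemergence soil spray of compound in non-phytotoxic solvent with surfactant; postemergence plants (2–10 cm, one- to two-leaf stage) were sprayed with the same formulation. After 10 days in greenhouse, injury was rated visually versus untreated controls, 0 (no effect) to 100 (complete control).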

kochia [2] = experiment: Test A postemergence; format: in vivo, Bassia scoparia; conditions: postemergence, 10 days
Outline: as §2

ragweed [3] = experiment: Test A postemergence; format: in vivo, Ambrosia artemisiifolia; conditions: postemergence, 10 days
Outline: as §2

pigweed, palmer [4] = experiment: Test A postemergence; format: in vivo, Amaranthus palmeri; conditions: postemergence, 10 days
Outline: as §2

ducksalad = experiment: Test B flooded paddy test; format: in vivo, Heteranthera limosa; conditions: 250 g ai/ha, Flood, 13 days, 0 to 100 scale (0 no effect, 100 complete control)
Outline: as §1

kochia [5] = experiment: Test A preemergence; format: in vivo, Bassia scoparia
Outline: as §2

ragweed [6] = experiment: Test A preemergence; format: in vivo, Ambrosia artemisiifolia
Outline: as §2

blackgrass [7] = experiment: Test A preemergence; format: in vivo, Alopecurus myosuroides
Outline: as §2

blackgrass [8] = experiment: Test A postemergence; format: in vivo, Alopecurus myosuroides; conditions: postemergence, 10 days
Outline: as §2

goosegrass [9] = experiment: Test A preemergence; format: in vivo, Eleusine indica
Outline: as §2

foxtail, giant [10] = experiment: Test A preemergence; format: in vivo, Setaria faberi
Outline: as §2

foxtail, giant [11] = experiment: Test A postemergence; format: in vivo, Setaria faberi; conditions: postemergence, 10 days
Outline: as §2

ryegrass, Italian [12] = experiment: Test A postemergence; format: in vivo, Lolium multiflorum; conditions: postemergence, 10 days
Outline: as §2

ryegrass, Italian [13] = experiment: Test A preemergence; format: in vivo, Lolium multiflorum
Outline: as §2

soybean [14] = experiment: Test A postemergence; format: in vivo, Glycine max; conditions: postemergence, 10 days
Outline: as §2

wheat [15] = experiment: Test A postemergence; format: in vivo, Triticum aestivum; conditions: postemergence, 10 days
Outline: as §2

oat, wild [16] = experiment: Test A postemergence; format: in vivo, Avena fatua; conditions: postemergence, 10 days
Outline: as §2

oat, wild [17] = experiment: Test A preemergence; format: in vivo, Avena fatua
Outline: as §2

goosegrass [18] = experiment: Test A postemergence; format: in vivo, Eleusine indica; conditions: postemergence, 10 days
Outline: as §2

sedge, umbrella = experiment: Test B flooded paddy test; format: in vivo, Cyperus difformis; conditions: 250 g ai/ha, Flood, 13 days, 0 to 100 scale (0 no effect, 100 complete control)
Outline: as §1

corn [19] = experiment: Test A postemergence; format: in vivo, Zea mays; conditions: postemergence, 10 days
Outline: as §2

rice = experiment: Test B flooded paddy test; format: in vivo, Oryza sativa; conditions: 250 g ai/ha, Flood, 13 days, 0 to 100 scale (0 no effect, 100 complete control)
Outline: as §1

corn [20] = experiment: Test A preemergence; format: in vivo, Zea mays
Outline: as §2

galium = experiment: Test A postemergence; format: in vivo, Galium aparine; conditions: postemergence, 10 days
Outline: as §2

soybean [21] = experiment: Test A preemergence; format: in vivo, Glycine max
Outline: as §2

horseweed = experiment: Test A postemergence; format: in vivo, Erigeron canadensis; conditions: postemergence, 10 days
Outline: as §2

pigweed, palmer [22] = experiment: Test A preemergence; format: in vivo, Amaranthus palmeri
Outline: as §2

[23] = 125 g ai/ha, visual injury after 10 days, 0 to 100 scale, 0 is no effect, 100 is complete control
[24] = 500 g ai/ha, 0 to 100 scale (0 no effect, 100 complete control), 10 days
[25] = 125 g ai/ha, 0 to 100 scale, 0 no effect, 100 complete control
[26] = 500 g ai/ha, visual injury, 0 to 100 scale (0 no effect, 100 complete control)

`CCc1ccc(-n2cnc(C3CCC3)n2)cc1C(=O)N1C[C@H](C)Oc2c(Cl)cccc21` [Compound 104] was tested, and the “Plant response rating, Barnyardgrass” value (barnyardgrass) was 60, the “Plant response rating, Wheat” value (wheat [1]; [23]) was 0 and the “Plant response rating, Wheat” value (wheat [1]; [24]) was 0. The “Kochia plant response rating” value (kochia [2]; [25]) was 80, the “Plant response rating, Kochia” value (kochia [2]; [26]) was 100 and the “Ragweed plant response rating” value (ragweed [3]; [25]) was 0. The “Plant response rating, Ragweed” value (ragweed [3]; [26]) was 30, the “Pigweed, Palmer plant response rating” value (pigweed, palmer [4]; [25]) was 80 and the “Plant response rating, Pigweed, Palmer” value (pigweed, palmer [4]; [26]) was 100. The “Plant response rating, Ducksalad” value (ducksalad) was 25, the “Plant response rating, Kochia” value (kochia [5]; [23]) was 50 and the “Plant response rating, Kochia” value (kochia [5]; [24]) was 100. For the same compound, the “Plant response rating, Ragweed” value (ragweed [6]; [23]) was 0, the “Plant response rating, Ragweed” value (ragweed [6]; [24]) was 40 and the “Plant response rating, Blackgrass” value (blackgrass [7]; [23]) was 30. For the same compound, the “Plant response rating, Blackgrass” value (blackgrass [7]; [24]) was 40, the “Blackgrass plant response rating” value (blackgrass [8]; [25]) was 0 and the “Plant response rating, Blackgrass” value (blackgrass [8]; [26]) was 50. For the same compound, the “Plant response rating, Goosegrass” value (goosegrass [9]; [23]) was 100, the “Plant response rating, Goosegrass” value (goosegrass [9]; [24]) was 100 and the “Plant response rating, Foxtail, Giant” value (foxtail, giant [10]; [23]) was 100. For the same compound, the “Plant response rating, Foxtail, Giant” value (foxtail, giant [10]; [24]) was 100, the “Foxtail, Giant plant response rating” value (foxtail, giant [11]; [25]) was 90 and the “Plant response rating, Foxtail, Giant” value (foxtail, giant [11]; [26]) was 90. For the same compound, the “Ryegrass, Italian plant response rating” value (ryegrass, Italian [12]; [25]) was 30, the “Plant response rating, Ryegrass, Italian” value (ryegrass, Italian [12]; [26]) was 60 and the “Plant response rating, Ryegrass, Italian” value (ryegrass, Italian [13]; [23]) was 50. The “Plant response rating, Ryegrass, Italian” value (ryegrass, Italian [13]; [24]) was 90, the “Soybean plant response rating” value (soybean [14]; [25]) was 100 and the “Plant response rating, Soybean” value (soybean [14]; [26]) was 100. The “Wheat plant response rating” value (wheat [15]; [25]) was 10, the “Plant response rating, Wheat” value (wheat [15]; [26]) was 10 and the “Oat, Wild plant response rating” value (oat, wild [16]; [25]) was 20. The “Plant response rating, Oat, Wild” value (oat, wild [16]; [26]) was 40, the “Plant response rating, Oat, Wild” value (oat, wild [17]; [23]) was 0 and the “Plant response rating, Oat, Wild” value (oat, wild [17]; [24]) was 70. The “Goosegrass plant response rating” value (goosegrass [18]; [25]) was 50, the “Plant response rating, Goosegrass” value (goosegrass [18]; [26]) was 80 and the “Plant response rating, Sedge, Umbrella” value (sedge, umbrella) was 98. For the same compound, the “Corn plant response rating” value (corn [19]; [25]) was 40, the “Plant response rating, Corn” value (corn [19]; [26]) was 80 and the “Plant response rating, Rice” value (rice) was 20. For the same compound, the “Plant response rating, Corn” value (corn [20]; [23]) was 0, the “Plant response rating, Corn” value (corn [20]; [24]) was 0 and the “Galium plant response rating” value (galium; [25]) was 60. The “Plant response rating, Galium” value (galium; [26]) was 100, the “Plant response rating, Soybean” value (soybean [21]; [23]) was 60 and the “Plant response rating, Soybean” value (soybean [21]; [24]) was 90. For the same compound, the “Horseweed plant response rating” value (horseweed; [25]) was 0, the “Plant response rating, Horseweed” value (horseweed; [26]) was 0 and the “Plant response rating, Pigweed, Palmer” value (pigweed, palmer [22]; [23]) was 90. The “Plant response rating, Pigweed, Palmer” value (pigweed, palmer [22]; [24]) was 100.
